{"source": "patent US20060275356A1", "about": "“Pharmaceutical compositions for treating or preventing coronary artery disease” (priority 2005, published 2006)", "key": {"HepG2 cells": {"test_system": "HepG2 cells", "conditions": "cited from earlier work"}, "plasma apoA-I levels": {"test_system": "plasma apoA-I levels", "assay": "Plasma apoA-I levels after two weeks of PI plus absorption enhancer (western immunoblotting)", "format": "in vivo, Sprague Dawley rats", "conditions": "60 mg/kg PI combined with the absorption enhancer (dose per Table 1), rats", "procedure": "Individual absorption enhancers were also incorporated into the 2 g bolus dose (Table 1). […] All animals were maintained on this regime for two weeks, at which time animals were euthanized and blood samples collected by cardiac puncture. Blood samples were collected into EDTA coated tubes, placed on ice, followed by centrifugation at 1500×g for 15 min at 4° C. to separate plasma. Plasma samples were stored at −20° C. until analysis of apoA-I could be performed. Plasma apoA-I levels were determined by western immunoblotting."}, "HDL-C cholesterol": {"test_system": "HDL-C cholesterol", "conditions": "5.5% by weight of rat chow, approximately 4 g/Kg body weight; cited from earlier work"}, "[1]": {"assay": "Effect of bile acids on absorption and transport of 3H-PI to the liver", "format": "in vivo, Sprague Dawley rats", "conditions": "120 mg/kg 3H-PI by gavage with 50 mg/kg bile acid; liver 4 hours post-gavage", "procedure": "Pharmacokinetic studies were performed to determine if specific bile acids increase the absorption and transport of phosphatidylinositol (PI) to the liver. Sprague Dawley rats (300-350 g) were fasted overnight, followed by administration of 120 mg/kg ^3H-PI by gavage. 50 mg/kg of the bile acids deoxycholate or glycocholate were also incorporated into the gavage. Animals were euthanized after 4 hours post-gavage at which time liver samples were harvested. PI was extracted from the liver samples using the acidic Bligh and Dyer extraction method (Bligh, E. G.; Dyer, W. J. Can. J. Biochem. vol. 37: 911-917, 1959 and Honeyman, T. W. et al., Biochem J. vol. 212: 489-498, 1983). Radioactivity present in the organic phase was measured to determine the amount of PI that was transported to the liver."}, "plasma HDL-C and apoA-I": {"test_system": "plasma HDL-C and apoA-I", "assay": "Oral PI in conventional formulations: increase in plasma HDL-C and apoA-I", "format": "in vivo", "conditions": "oral PI about 5.6 g/day"}, "[2]": {"conditions": "two pilot studies, children aged 4-19 years; cited from earlier work"}}, "note": "Where two headings read alike, the source gives them in different places.", "data": [{"compound": "CC(C)c1c(C(=O)Nc2ccccc2)c(-c2ccccc2)c(-c2ccc(F)cc2)n1CC[C@@H](O)C[C@@H](O)CC(=O)O", "note": "[atorvastatin, reference compound]", "values": [{"measurement": "inhibition of cholesterol synthesis", "setting": "HepG2 cells; concentrations between 0.01 to 10 μM", "value": "45-65%"}]}, {"compound": "C[C@H](CCC(=O)O)[C@H]1CC[C@H]2[C@@H]3[C@H](O)C[C@@H]4C[C@H](O)CC[C@]4(C)[C@H]3CC[C@]12C", "note": "[chenodeoxycholate]", "values": [{"measurement": "increase in plasma apoA-I relative to PI alone", "setting": "plasma apoA-I levels", "value": 2, "unit": "fold"}]}, {"compound": "C[C@H](CCC(=O)NCC(=O)O)[C@H]1CC[C@H]2[C@@H]3[C@H](O)C[C@@H]4C[C@H](O)CC[C@]4(C)[C@H]3C[C@H](O)[C@]12C", "note": "[glycocholate]", "values": [{"measurement": "increase in plasma apoA-I relative to PI alone", "setting": "plasma apoA-I levels", "value": 6.6, "unit": "fold"}]}, {"compound": "CCCCCCCCCCCC(=O)[O-].[Na+]", "note": "[sodium laurate]", "values": [{"measurement": "increase in plasma apoA-I relative to PI alone", "setting": "plasma apoA-I levels", "value": 3.7, "unit": "fold"}]}, {"compound": "CCCCCCCCCCCCOS(=O)(=O)[O-].[Na+]", "note": "[sodium lauryl sulfate]", "values": [{"measurement": "increase in plasma apoA-I relative to PI alone", "setting": "plasma apoA-I levels", "value": 7.7, "unit": "fold"}]}, {"compound": "Bromelain", "values": [{"measurement": "increase in plasma apoA-I relative to PI alone", "setting": "plasma apoA-I levels", "value": 5.4, "unit": "fold"}]}, {"compound": "Phosphatidic acid [Phosphatidic acid (PA)]", "values": [{"measurement": "increase of HDL-C cholesterol", "setting": "HDL-C cholesterol", "value": "about 2 fold"}]}, {"compound": "deoxycholate", "values": [{"measurement": "increase in plasma apoA-I relative to PI alone", "setting": "plasma apoA-I levels", "value": 2, "unit": "fold"}, {"measurement": "increase of transport of PI to the liver", "setting": "[1]", "value": 20, "unit": "%"}]}, {"compound": "phosphatidylinositol [PI]", "values": [{"measurement": "increase in plasma HDL-C", "setting": "plasma HDL-C and apoA-I", "value": "~20", "unit": "%"}, {"measurement": "increase in plasma apoA-I", "setting": "plasma HDL-C and apoA-I", "value": "~10", "unit": "%"}, {"measurement": "inhibition of cholesterol synthesis", "setting": "HepG2 cells; concentration of 11.7 μM", "value": 50, "unit": "%"}]}, {"compound": "phosphatidylserine [PS]", "values": [{"measurement": "children with improved attention, behavior, learning performance and ameliorated negative mood", "setting": "[2]", "value": "15 out of 20"}]}]}
